We go through 1 compound from patent publication US20140018750A1, “METHOD AND DEVICE OR PHARMACEUTICAL COMPOSITIONS FOR THE TRANSDERMAL DELIVERY OF MAGNESIUM DIRECTLY TO THE NEUROMUSCULAR JUNCTION FOR THE TREATMENT OF MUSCLE CRAMPING” (priority 2012, published 2014).

The subject of one assay is sciatica. To be noted: Patient Michael, cream composed of aloe combined with 8% by MW of magnesium sulfate.

SMILES strings stand for the structures.

Consider `O=S(=O)([O-])[O-].[Mg+2]` [magnesium sulfate], for which the time to relief entry in the assay with sciatica is “six”; in the assay on muscle cramping (Patient Doris, reoccurring severe muscle cramps in the right foot, liquid solution, 8% by MW of magnesium sulfate, applied to the area), “three”. In the assay on muscle cramping (Patient Henry, severe muscle cramps in the upper right arm after exertion, liquid form of 8% by MW of magnesium sulfate applied directly), the “time until began to experience relief” value is “three”. The “time to relief from both symptoms” value in the assay on muscle cramping (Patient Norma, severe leg cramps with restless leg syndrome, towel soaked in composition with 8% by MW of magnesium sulfate applied to affected area) was “four”.
